In patent publication US10022392B2, “Compositions based on methyl cyclodextrins for the treatment and/or prevention of diseases by increasing the HDL cholesterol level” (ROQUETTE FRERES, priority 2013, dated 2018):

Tests used:
ABCG1 = assay: Expression of the ABCG1 transporter (real-time PCR) in endothelial cells treated with cyclodextrins; format: cell-based, bovine; conditions: 1 mM cyclodextrin, 24 hours, ABAEs, compared with control, FIG. 4
Protocol: (§1) Cells: The endothelial cells were adult bovine aortic endothelial cells (ABAEs).
(§2) The cells were then cultured in this radioactive medium for 36 hours in order to allow them to incorporate the radioactive cholesterol. The medium was then removed and the cells were rinsed twice with warm DMEM containing 0.1% of bovine serum albumin (BSA). The cells were then cultured in DMEM/1 ng/ml bFGF containing 1 mM of each cyclodextrin for 24 hours (1.4 ml/well).
(§3) After 24 hours of treatment with each cyclodextrin, the cells were rinsed twice in cold PBS (8 g/l NaCl, 0.2 g/l KCl, 0.2 g/l KH2PO4, 2.87 g/l NA2HPO4 (12H2O), pH 7.4) and lyzed using 500 μl of RLT lysis buffer […]. Three wells were used and pooled for each condition. […] At the end of this purification step, the mRNA concentration was estimated by virtue of the absorbance values obtained at 260, 280 and 320 nm. […]
(§4) The amplification was carried out over the course of 40 cycles with a hybridization temperature of 60° C. using the Biorad CFX96 thermocycler. For each pair of primers, the amplification specificity was verified by producing melting curves and the efficiency was determined by producing dilution curves. The expression levels measured were then normalized on the expression levels of β-actin and cyclophillin B using the ΔΔCt method. […]

[1] = test system: adult bovine aortic endothelial cells (ABAEs); assay: Cholesterol efflux: 3H-cholesterol captured by the cyclodextrins from aortic endothelial cells; format: cell-based; conditions: 1 mM cyclodextrin, 2 hours, FIG. 2
From the text: as §1
Cyclodextrins: the cyclodextrins used were the following: a non-methylated β-cyclodextrin, hereinafter denoted “β-CD”, a methyl-β-cyclodextrin having an MS of 0.2, hereinafter denoted “MβCD-0.2”, a methyl-β-cyclodextrin having an MS of 0.67 (KLEPTOSE® CRYSMEB, ROQUETTE FRERES), hereinafter denoted “MβCD-0.67”, a methyl-β-cyclodextrin having an MS of 1.8 (RAMEB®, CYCLOLAB), hereinafter denoted “MβCD-1.8”.
0.5 μCi/ml of 3H-cholesterol was incorporated into serum (10% horse serum/calf serum (HS/CS)) for 6 hours at 37° C. for the purpose of obtaining a culture medium enriched with radioactive cholesterol. After this incorporation, the culture medium was finalized by incorporation of DMEM (Dulbecco's Modified Eagle's medium) supplemented with 10% HS, 10% CS, 1 ng/ml bFGF (basic fibroblast growth factor), 2 mM glutamine and 50 μg/ml gentamicin. […]
Two hours after the beginning of the incubation in the presence of each cyclodextrin, 500 μl of medium were removed and the radioactive cholesterol captured by the cyclodextrin was assayed by means of a scintillation counter (Tri-carb 2100TR). The radioactivity was measured in disintegrations per minute (DPM). The capacity of each cyclodextrin to capture cellular cholesterol was then estimated by performing the following calculation: ((1.4 ml/0.5 ml)×DPM measured). […]

ABCA1 = assay: Expression of the ABCA1 transporter (real-time PCR) in endothelial cells treated with cyclodextrins; format: cell-based, bovine; conditions: 1 mM cyclodextrin, 24 hours, ABAEs, compared with control, FIG. 3
Protocol: as §1, §2, §3, §4

## OC[C@H]1O[C@@H]2O[C@H]3[C@H](O)[C@@H](O)[C@@H](O[C@H]4[C@H](O)[C@@H](O)[C@@H](O[C@H]5[C@H](O)[C@@H](O)[C@@H](O[C@H]6[C@H](O)[C@@H](O)[C@@H](O[C@H]7[C@H](O)[C@@H](O)[C@@H](O[C@H]8[C@H](O)[C@@H](O)[C@@H](O[C@H]1[C@H](O)[C@H]2O)O[C@@H]8CO)O[C@@H]7CO)O[C@@H]6CO)O[C@@H]5CO)O[C@@H]4CO)O[C@@H]3CO [βCD, β-cyclodextrin]
ABCG1
  ABCG1 receptor expression (mRNA): strongly decreasing
[1]
  Cholesterol efflux (radioactive cholesterol captured by the cyclodextrin): rapid and considerable efflux
ABCA1
  ABCA1 receptor expression (mRNA): strongly decreasing
